Test results: patent US8101612B2, “Phthalazine compounds and methods of use” (Amgen Inc., priority 2006, dated 2012)

Legend:
[1] = AA2734_IC50_IP (Table 4, assay code not explained); details: internal assay code
[2] = AA5225_IC50_IP (Table 4, assay code not explained); details: internal assay code
[3] = system: production of TNF by monocytes activated with bacterial lipopolysaccharide (LPS); experiment: Lipopolysaccharide-activated monocyte TNF production assay (whole blood monocyte assay, LPS induced TNF release); assay type: cell-based; details: Homo sapiens
Description: Lipopolysaccharide-Activated Monocyte TNF Production Assay
Test compounds were evaluated in vitro for the ability to inhibit the production of TNF by monocytes activated with bacterial lipopolysaccharide (LPS). Fresh residual source leukocytes (a byproduct of plateletpheresis) were obtained from a local blood bank, and peripheral blood mononuclear cells (PBMCs) were isolated by density gradient centrifugation on Ficol-Paque Plus (Pharmacia). PBMCs were suspended at 2×10^6/mL in DMEM supplemented to contain 2% FCS, 10 mM, 0.3 mg/mL […], 100 U/mL penicillin G and […] streptomycin sulfate (complete media). Cells were plated into Falcon flat bottom, 96 well culture plates (200 μL/well) and cultured overnight at 37° C. and 6% CO2. Non-adherent cells were removed by washing with 200 μl/well of fresh medium. Wells containing adherent cells (˜70% monocytes) were replenished with 100 μL of fresh medium.
Preparation of Test Compound Stock Solutions
Test compounds were dissolved in […]. Compound stock solutions were prepared to an initial concentration of […]. Stocks were diluted initially to 20-200 μM in complete media. Nine two-fold serial dilutions of each compound were then prepared in complete medium.
Treatment of Cells with Test Compounds and Activation of TNF Production with Lipopolysaccharide
One hundred microliters of each test compound dilution were added to microtiter wells containing adherent monocytes and 100 μL complete medium. Monocytes were cultured with test compounds for 60 min at which time 25 μL of complete medium containing 30 ng/mL lipopolysaccharide from E. coli K532 were added to each well. Cells were cultured an additional 4 hrs. Culture supernatants were then removed and TNF presence in the supernatants was quantified using an ELISA.
Flat bottom, 96 well Corning High Binding ELISA plates were coated overnight (4° C.) with 150 μL/well of 3 μg/mL murine anti-human TNF-α MAb (R&D Systems #MAB210). Wells were then blocked for 1 h at room temperature with 200 μL/well of CaCl2-free ELISA buffer supplemented to contain 20 mg/mL BSA (standard ELISA buffer: […], 150 mM NaCl, 2 mM CaCl2, 0.15 mM thimerosal, pH 7.4). Plates were washed and replenished with 100 μL of test supernatants (diluted 1:3) or standards. Standards consisted of eleven 1.5-fold serial dilutions from a stock of 1 ng/mL recombinant human TNF (R&D Systems). Plates were incubated at room temperature for 1 h on orbital shaker (300 rpm), washed and replenished with 100 μL/well of 0.5 μg/mL goat anti-human TNF-α (R&D systems #AB-210-NA) biotinylated at a 4:1 ratio. Plates were incubated for 40 min, washed and replenished with 100 μL/well of alkaline phosphatase-conjugated streptavidin (Jackson ImmunoResearch #016-050-084) at 0.02 μg/mL. Plates were incubated 30 min, washed and replenished with 200 μL/well of 1 mg/mL of p-nitrophenyl phosphate. After 30 min, plates were read at 405 nm on a Vmax plate reader.

SMILES	IC50 [1] [nM]	IC50 [2] [nM]	IC50 [3] [nM]
CCNC(=O)c1ccc(C)c(-c2ccc3c(O[C@@H](C)C(F)(F)F)nncc3c2)c1 [Example 257, N-ethyl-4-methyl-3-(1-(((1S)-2,2,2-trifluoro-1-methylethyl)oxy)-6-phthalazinyl)benzamide]	0.813	1.02	
Cc1ccc(C(=O)NC(C)C)cc1-c1ccc2c(N3CCC[C@H]3C)nncc2c1 [Example 37, 4-methyl-N-(1-methylethyl)-3-(1-((2R)-2-methyl-1-pyrrolidinyl)-6-phthalazinyl)benzamide]			≤ 10
Cc1ccc(C(=O)Nc2ccnn2C)cc1-c1ccc2c(C(C)(C)F)nncc2c1 [Example 249, 3-(1-(1-fluoro-1-methylethyl)-6-phthalazinyl)-4-methyl-N-(1-methyl-1H-pyrazol-5-yl)benzamide]	0.334	1.14	
[2H]c1c([2H])c(C(=O)NC2CC2)c([2H])c(-c2ccc3c(OC(C)C(F)(F)F)nncc3c2)c1C (stereo not drawn) [Example 259, N-cyclopropyl-4-methyl-3-(1-((2,2,2-trifluoro-1-methylethyl)oxy)-6-phthalazinyl)benzamide-d 3]	1.7	0.991	
Cc1ccc(C(=O)NC2CC2)cc1-c1ccc2c(-c3ccc(S(=O)(=O)C(F)(F)F)cc3C)nncc2c1 [Example 233, N-cyclopropyl-4-methyl-3-(1-(2-methyl-4-((trifluoromethyl)sulfonyl)phenyl)-6-phthalazinyl)benzamide]	2.89	0.62	
Cc1ccc(C(=O)NC2CC2)cc1-c1ccc2c([C@@H](C)C(F)(F)F)nncc2c1 [Example 227a, N-cyclopropyl-4-methyl-3-(1-((1R)-2,2,2-trifluoro-1-methylethyl)-6-phthalazinyl)benzamide]	0.455	1.08	
Cc1ccc(C(=O)Nc2ccnn2C)cc1-c1ccc2c([C@@](C)(O)C(F)(F)F)nncc2c1 [Example 251, 4-methyl-N-(1-methyl-1H-pyrazol-5-yl)-3-(1-((1R)-2,2,2-trifluoro-1-hydroxy-1-methylethyl)-6-phthalazinyl)benzamide]	0.2	0.913	
Cc1ccc(C(=O)NC(C)C)cc1-c1ccc2c(O[C@H](C)C(F)(F)F)nncc2c1 [Example 41, 4-methyl-N-(1-methylethyl)-3-(1-(((1R)-2,2,2-trifluoro-1-methylethyl)oxy)-6-phthalazinyl)benzamide]			≤ 100
Cc1ccc(C#N)cc1-c1ccc2c(O[C@H](C)C(F)(F)F)nncc2c1 [Example 231, 4-methyl-3-(1-(((1R)-2,2,2-trifluoro-1-methylethyl)oxy)-6-phthalazinyl)benzonitrile]	33.3	80.8	
Cc1ccc(C(=O)NC2CC2)cc1-c1ccc2c([C@@](C)(O)C(F)(F)F)nncc2c1 [Example 229, N-cyclopropyl-4-methyl-3-(1-((1R)-2,2,2-trifluoro-1-hydroxy-1-methylethyl)-6-phthalazinyl)benzamide]	0.383	0.599	
CNC(=O)c1ccc(C)c(-c2ccc3c(O[C@@H](C)C(F)(F)F)nncc3c2)c1 [Example 258, N,4-dimethyl-3-(1-(((1S)-2,2,2-trifluoro-1-methylethyl)oxy)-6-phthalazinyl)benzamide]	1.75		
Cc1ccc(C(N)=O)cc1-c1ccc2c(O[C@H](C)C(F)(F)F)nncc2c1 [Example 43, 4-methyl-3-(1-(((1R)-2,2,2-trifluoro-1-methylethyl)oxy)-6-phthalazinyl)benzamide]			≤ 100
Cc1ccc(C(=O)NC2(C)CC2)cc1-c1ccc2c(N3CCC[C@@H]3C)nncc2c1 [Example 66, 4-methyl-N-(1-methylcyclopropyl)-3-(1-((2S)-2-methyl-1-pyrrolidinyl)-6-phthalazinyl)benzamide]			≤ 10
Cc1c(F)cc(C(=O)NC2CC2)cc1-c1ccc2c(O[C@@H](C)C(F)(F)F)nncc2c1 [Example 255, N-cyclopropyl-3-fluoro-4-methyl-5-(1-(((1S)-2,2,2-trifluoro-1-methylethyl)oxy)-6-phthalazinyl)benzamide]	0.307	0.592	
Cc1ccc(C(=O)NC2CC2)cc1-c1ccc2c([C@H](C)C(F)F)nncc2c1 [Example 256, N-cyclopropyl-3-(1-((1S)-2,2-difluoro-1-methylethyl)-6-phthalazinyl)-4-methylbenzamide]	0.18	1.03	
Cc1ccc(C(=O)NC2CC2)cc1-c1ccc2c(C(C)(C)O)nncc2c1 [Example 248, N-cyclopropyl-3-(1-(1-hydroxy-1-methylethyl)-6-phthalazinyl)-4-methylbenzamide]	0.826	0.812	
Cc1ccc(C(=O)NC2CC2)cc1-c1ccc2c([C@](C)(O)C(F)(F)F)nncc2c1 [Example 230, N-cyclopropyl-4-methyl-3-(1-((1S)-2,2,2-trifluoro-1-hydroxy-1-methylethyl)-6-phthalazinyl)benzamide]	0.364	0.643	
Cc1ccc(C(=O)O)cc1-c1ccc2c(C(C)(C)O)nncc2c1 [Example 247, 3-(1-(1-hydroxy-1-methylethyl)-6-phthalazinyl)-4-methylbenzoic acid]		1000	
Cc1ccc(C(=O)NCC(F)(F)F)cc1-c1ccc2c(NC(C)C)nncc2c1 [Example 29, 4-methyl-3-(1-((1-methylethyl)amino)-6-phthalazinyl)-N-(2,2,2-trifluoroethyl)benzamide]			≤ 10
Cc1ccc(C#N)cc1-c1ccc2c(O)nncc2c1 [Example 232, 3-(1-hydroxy-6-phthalazinyl)-4-methylbenzonitrile]		1.33	
Cc1ccc(C(=O)Nc2ccon2)cc1-c1ccc2c(NC(C)C)nncc2c1 [Example 13, N-3-isoxazolyl-4-methyl-3-(1-((1-methylethyl)amino)-6-phthalazinyl)benzamide]			≤ 10
Cc1ccc(C(=O)Nc2ccnn2C)cc1-c1ccc2c(C(C)(O)C(F)(F)F)nncc2c1 (stereo not drawn) [Example 243, 4-methyl-N-(1-methyl-1H-pyrazol-5-yl)-3-(1-(2,2,2-trifluoro-1-hydroxy-1-methylethyl)-6-phthalazinyl)benzamide]		1.33	
Cc1ccc(C(=O)NC2CC2)cc1-c1ccc2c(C(C)(O)C(F)(F)F)nncc2c1 (stereo not drawn) [Example 244, N-cyclopropyl-4-methyl-3-(1-(2,2,2-trifluoro-1-hydroxy-1-methylethyl)-6-phthalazinyl)benzamide]	0.434	0.952	
Cc1ccc(C(=O)Nc2ccnn2C)cc1-c1ccc2c(C3(C(F)(F)F)CC3)nncc2c1 [Example 226, 4-methyl-N-(1-methyl-1H-pyrazol-5-yl)-3-(1-(1-(trifluoromethyl)cyclopropyl)-6-phthalazinyl)benzamide]	0.173	1.12	
Cc1ccc(C(=O)Nc2ccnn2C)cc1-c1ccc2c([C@](C)(O)C(F)(F)F)nncc2c1 [Example 250, 4-methyl-N-(1-methyl-1H-pyrazol-5-yl)-3-(1-((1S)-2,2,2-trifluoro-1-hydroxy-1-methylethyl)-6-phthalazinyl)benzamide]	0.296	0.954	
Cc1c(F)cc(C(=O)NC2CC2)cc1-c1ccc2c(C(C)(C)F)nncc2c1 [Example 253, N-cyclopropyl-3-fluoro-5-(1-(1-fluoro-1-methylethyl)-6-phthalazinyl)-4-methylbenzamide]	0.168	0.696	
Cc1ccc(C(=O)NC2CC2)cc1-c1ccc2c(C(C)(C)F)nncc2c1 [Example 252, N-cyclopropyl-3-(1-(1-fluoro-1-methylethyl)-6-phthalazinyl)-4-methylbenzamide]	0.242	0.745	
Cc1ccc(C(=O)NC2CC2)cc1-c1ccc2c(C3(C(F)(F)F)CC3)nncc2c1 [Example 225, N-cyclopropyl-4-methyl-3-(1-(1-(trifluoromethyl)cyclopropyl)-6-phthalazinyl)benzamide]	0.148	0.968	
Cc1c(F)cc(C(=O)NC2CC2)cc1-c1ccc2c(O[C@H](C)C(F)(F)F)nncc2c1 [Example 254, N-cyclopropyl-3-fluoro-4-methyl-5-(1-(((1R)-2,2,2-trifluoro-1-methylethyl)oxy)-6-phthalazinyl)benzamide]	0.501	0.769	
